pKi: −log10 of the molar value.
Columns and labels:
[1] = target: T1, glycine binding site of the NMDA receptor channel (Rattus norvegicus, UniProt P35439); assay: Receptor binding, displacement of (3H)-MDL 105.519 on rat cerebral membrane homogenates; conditions: 1 nmol/l (3H)-MDL 105.519
T1 construct: from tissue; host or cells: rat brain cortex and hippocampus membrane homogenate
Procedure: Receptor Binding (Glycine Binding Site of the NMDA Receptor Channel)
Experiments to determine the affinity of the compounds according to the invention of Formula I to the glycine binding site of the NMDA receptor channel were carried out on cerebral membrane homogenates (homogenate of Cortex- and Hippocampus-Areal from the brain of male rats, Wistar strain) (B. M. Baron, B. W. Siegel, B. L. Harrison, R. S. Gross, C. and P. Towers, Journal of Pharmacology and Experimental Therapeutics, Vol. 279, p. 62, 1996).
For this purpose, Cortex and Hippocampus from freshly removed rats' brains were dissected, homogenized in 5 mmol/l TRIS-acetate buffer, 0.32 mol/l sacharose pH 7.4 (10 ml/g fresh weight) with a Potter homogenizer (made by Braun/Melsungen, 10 piston strokes at 500 rpm) while cooling with ice and subsequently centrifuged for 10 minutes at 1,000 g and 4° C. The first supernatant material was collected and the sediment homogenized again with […] TRIS-acetate buffer, 0.32 mol/l safcharose pH 7.4 (5 ml/g original fresh weight) using the Potter homogenizer (10 piston strokes at 500 rpm) while cooling with ice and centrifuged for 10 minutes at 1,000 g and 4° C. The resultant supernatant material was combined with the supernatant material from the first centrifugation and centrifuged at 17,000 g for 20 minutes at 4° C. The supernatant material after this centrifugation was discarded, the membrane sediment taken up with 5 mmol/l TRIS-acetate buffer pH 8.0 (20 ml/g original fresh weight) and homogenized with 10 piston strokes at 500 rpm.
The membrane homogenate was then incubated for 1 hour at 4° C. and centrifuged for 30 minutes at 50,000 g and 4° C. The supernatant material was discarded and the centrifuge tube with the membrane sediment sealed with parafilm and frozen for 24 hours at −20° C. The membrane sediment was thawed on the following day, taken up with ice-cold 5 mmol/l TRIS-acetate buffer, 0.1% saponin (w/v) pH 7.0 (10 ml/g original fresh weight), homogenized with 10 piston strokes at 500 rpm and subsequently centrifuged for 20 minutes at 50,00 g and 4° C. The resultant supernatant material was discarded, the sediment taken up in a small volume with 5 mmol/l TRIS-acetate buffer pH 7.0 (about 2 ml/g original fresh weight) and homogenized again with 10 piston strokes at 500 rpm. After determining the protein content, the membrane homogenate was adjusted to a protein concentration of 10 mg protein/ml using 5 mmol/l TRIS-acetate buffer pH 7.0 and frozen in aliquots for testing.
For the receptor binding test, aliquots were thawed, diluted 1:10 with 5 mmol/l TRIS-acetate buffer pH 7.0, homogenized with 10 piston strokes at 500 rpm using the potter homogenizer (10 piston strokes at 500 rpm) while cooling with ice and centrifuged for 60 minutes at 55,000 g at 4° C. The supernatant material was decanted, the membrane sediment adjusted to a protein concentration of 1 mg/ml with ice-cold 50 mmol/l TRIS-acetate buffer pH 7.0, homogenized again with 10 piston strokes at 500 rpm and kept in suspension in the ice bath while stirring on a magnetic stirrer. 100 μl of this membrane homogenate per 1 ml of feedstock was used in each case in the receptor binding test (0.1 mg protein/ml in the final batch).
In the binding test, 50 mmol/l TRIS-acetate buffer pH 7.0 was used as buffer and 1 nmol/l (^3H)-MDL 105.519 (B. M. Baron et al 1996) was used as radioactive ligand. The proportion of unspecific binding was determined in the presence of 1 mmol/l glycine.
In further batches, the compounds according to the invention were added in concentration series and the displacement of the radioactive ligand from its specific binding to the glycine binding site of the NMDA receptor channel determined. The respective triple batches were incubated for 120 minutes at 4° C. and then harvested to determine the radioactive ligands bound to the membrane homogenate by filtration through glass fiber filter mats (GF/B). […]

[2] = tested on: formalin-induced nociception; assay: Formalin test, rat (second/late phase); type: in vivo; conditions: i.p., 21.5 mg/kg, late phase
Procedure: Experiments to determine the antinociceptive activity of the compounds according to the invention of Formula I were carried out in the formalin test on male rats (Sprague-Dawley, 150-170 g).
In the formalin test, the first (early) phase (0-15 min after formalin injection) was distinguished from the second (late) phase (15-60 min after formalin injection) (D. Dubuisson, S. G. Dennis, Pain 4, 161-174 (1977)). The early phase, as a direct reaction to the formalin injection, represents a model for acute pain while the late phase is considered as a model for persistent (chronic) pain (T. J. Coderre, J. Katz, A. L. Vaccarino, R. Melzack, Pain, Vol. 52, p. 259,1993).
The compounds according to the invention were investigated in the second phase of the formalin test to obtain information about the effects of substances in chronic/inflammatory pain.
A nociceptive reaction was induced in freely moving experimental animals by a single subcutaneous formalin injection (50 μl, 5%) into the dorsal side of the back right paw, the nociceptive reaction being portrayed by the following behavioral parameters: lifting and holding the respective paw (Score 1), shaking and twitching (Score 2), licking and biting (Score 3). The different behavioral patterns triggered by the formalin injection were recorded continuously by observing the animals in the late phase of the formalin test and were weighted differently in an evaluation. Normal behavior in which the animal loads all four paws uniformly was recorded as score 0. The moment of administration prior to the formalin injection was selected according to the method of administration of the compounds according to the invention (intraperitoneal: 15 min, intravenous: 5 min). The described behavioral patterns (Score 1 to 3) in the animals are reduced and possibly even eliminated after injection of substances which have an antinociceptive effect in the formalin test. A comparisom was made with control animals which had received vehicles (solvents) prior to formalin administration. The nociceptive behavior was calculated as a so-called pain rate (PR). The various behavioral parameters received a different weighting (Factor 0, 1, 2, 3). Calculation took place at partial intervals of 3 min according to the following formula:
Substance and vehicle groups include n=10 animals in each case. The effect of the substance was determined as a percentage change versus control on the basis of the PR calculations. The ED50 calculations were made by regression analysis.

- inhibition at 10 µM ([1]; 10 μmol/l test substance, read-out: Displacement (%, 10 μmol/l) of radioactive ligand from specific binding): 100%
- pKi ([1]; mean from three independent experiments, from IC50 by Cheng-Prussoff equation): 6.52
Structure (SMILES): O=C(O)C1Nc2cc(Cl)cc(Cl)c2C2C=CCC12 (stereo not drawn) [Example 2, 7,9-dichloro-3a,4,5,9b-tetrahydro-3H-cyclopenta[c]quinoline-4-carboxylic Acid]
- % inhibition of formalin-induced nociception [2]: 64.5%

Source: US6699877B2 (Gruenenthal GmbH, priority 2000, dated 2004)
